Measurements as given in US20100120752A1, “MUSCARINIC AGONISTS TO TREAT IMPULSE CONTROL DISORDERS” (Solvay Pharmaceuticals, B.V., priority 2007, published 2010).

Legend:
[1] = system: MK801 induced increase of anticipatory responses of rats; assay: 5-Choice Serial Reaction Time task, interaction studies against MK801; type: in vivo, rat; details: ±SEM
Source text: (§1) Male Wistar rats weighing 330-450 g (Harlan, The Netherlands) were housed in pairs under a 12-h light/dark cycle (lights off at 7:00 a.m.) and had daily access to a limited amount of food that kept their body weight at approximately 85% of the free feeding weight. Water was available ad libitum. All procedures were in compliance with the European Communities Council Directive of Nov. 24, 1986 (86/609 EEC).
(§2) Standard 5-CSRT boxes from MED associates Inc. Georgia, Vt. US were used. The curved wall of the chamber contained five 1.6 cm2 holes, 2.2 cm deep, 2 cm above floor level. […] In every hole a yellow stimulus light was presented. A food dispenser was located at the opposite wall. The box was illuminated by a 28 Volt 100 mA house light. The 5-CSRT boxes were placed in sound attenuating cubicles. On-line control of the apparatus and data collection were performed by a MED-PC experimental apparatus programming system (Tatham, 1989), running on a Dell Optiplex GX1 PC.
(§3) Rats were first trained to collect reinforcement pellets from the food dispenser and to collect reinforcements that were placed in the 5 holes in order to habituate the animals to the 5-CSRT task apparatus. Next, training of the 5-CSRT task started. These sessions started by illumination of the light in one of the holes for 30 seconds (stimulus duration). A response by the rat into the illuminated hole or a response in that particular hole for a short period of time after the illumination (the limited hold 60 sec) was rewarded with the delivery of a food pellet, termination of the trial and a correct response was recorded. The light stimulus was presented in each of the holes 20 times during a session (total of 100 presentations), and the order of presentations was randomized. […] After termination of the trial a variable inter-trial interval was started (1, 3, 5, 7 or 9 sec) after which the next trial was started. Upon reaching a 75% correct performance level the duration of illumination of the light stimulus was reduced until a presentation of 0.5 sec (from 30 to 20, 10, 5, 2, 1, 0.9; 0.8; 0.7; 0.6; 0.5.) and a limited hold of 5 sec (in three steps from 30 to 20, 10 and 5 sec), was reached. (Robbins, 1993).
(§4) The following parameters were measured (Muir, 1996):
(§5) Accuracy: the percentage correct responses divided by the total responses made.
(§6) Errors of omission: the number of missed stimulus presentations.
(§7) Correct responses: the number of correct responses.
(§8) Fault responses: the number of responses in the wrong hole.
(§9) Anticipatory responses: the number of premature responses made preceding the presentation of the light stimulus.
(§10) Persevering responses: responses emitted after an incorrect or correct response.
Both xanomeline and desmethylclozapine were each tested in the same dose range against 0.05 mg/kg (s.c.) MK801, a dose shown to elicit unequivocal impulsive behavior (see Table 1).

Male Wistar rats = assay: 5-Choice Serial Reaction Time task, MK801 alone; type: in vivo, rat; details: for number of anticipatory responses / number of correct responses / number of fault responses / number of missed responses / percentage of correct responses / persevering responses / total number of responses: ±S.E.M.
Source text: as §1, §2, §3, §4, §5, §6, §7, §8, §9, §10
MK801 was tested in a Latin hexagon design, meaning that each rat received all test dosages (0, 0.01, 0.025 and 0.05 mg/kg s.c.) in a random order.

[2] = 0.05 mg/kg (s.c.) MK801 with 0 mg/kg desmethylclozapine
[3] = 0.05 mg/kg (s.c.) MK801 with 0 mg/kg xanomeline
[4] = evident at 0.025 mg/kg and 0.05 mg/kg, p<0.05
[5] = first series, MK801 0.01 mg/kg s.c.
[6] = first series, MK801 0.025 mg/kg s.c.
[7] = first series, MK801 0.05 mg/kg s.c.
[8] = second series, MK801 0.01 mg/kg s.c.
[9] = second series, MK801 0.025 mg/kg s.c.
[10] = second series, MK801 0.05 mg/kg s.c.

CC12NC(Cc3ccccc31)c1ccccc12 (centres unmarked) [MK801, dizocilpine]
% correct responses [1, 2]: 66.2 ± 3.8%
nr anticipatory resp [1, 2]: 116.8 ± 19.9
nr of correct resp [1, 2]: 53.8 ± 4.4
nr of fault resp [1, 2]: 25.9 ± 2.1
nr of missed resp [1, 2]: 20.3 ± 3.7
persevering resp [1, 2]: 20.2 ± 3.2
total nr of resp [1, 2]: 79.7 ± 3.7
% correct resp [1, 3]: 66.9 ± 3.5%
nr anticipatory resp [1, 3]: 133.8 ± 23.5
nr of correct resp [1, 3]: 53.3 ± 3.9
nr of fault resp [1, 3]: 25.9 ± 2.7
nr of missed resp [1, 3]: 20.8 ± 3.4
persevering resp [1, 3]: 16.9 ± 2.6
total nr of resp [1, 3]: 79.3 ± 3.4
effect on missed responses (Male Wistar rats; [4]): decreased
effect on number of anticipatory responses (Male Wistar rats; [4]): boosted
effect on persevering responses (Male Wistar rats; [4]): boosted
effect on total number of responses (Male Wistar rats; [4]): boosted
number of anticipatory responses (Male Wistar rats; [5]): 51.3 ± 5.4
number of correct responses (Male Wistar rats; [5]): 52.6 ± 3.3
number of fault responses (Male Wistar rats; [5]): 19.8 ± 2.2
number of missed responses (Male Wistar rats; [5]): 27.7 ± 3.3
percentage of correct responses (Male Wistar rats; [5]): 72.6 ± 2.8%
persevering responses (Male Wistar rats; [5]): 7.9 ± 1
total number of responses (Male Wistar rats; [5]): 72.3 ± 3.3
number of anticipatory responses (Male Wistar rats; [6]): 73.2 ± 8.7
number of correct responses (Male Wistar rats; [6]): 53.8 ± 3.9
number of fault responses (Male Wistar rats; [6]): 22.6 ± 2.7
number of missed responses (Male Wistar rats; [6]): 23.6 ± 2.9
percentage of correct responses (Male Wistar rats; [6]): 70.0 ± 3.7%
persevering responses (Male Wistar rats; [6]): 17.7 ± 4.1
total number of responses (Male Wistar rats; [6]): 76.4 ± 2.9
number of anticipatory responses (Male Wistar rats; [7]): 148.6 ± 38.6
number of correct responses (Male Wistar rats; [7]): 55.3 ± 3.2^
number of fault responses (Male Wistar rats; [7]): 26.0 ± 2.7^
number of missed responses (Male Wistar rats; [7]): 18.7 ± 3.1
percentage of correct responses (Male Wistar rats; [7]): 68.0 ± 3%
persevering responses (Male Wistar rats; [7]): 28.2 ± 4.7
total number of responses (Male Wistar rats; [7]): 81.3 ± 3.1
number of anticipatory responses (Male Wistar rats; [8]): 78.1 ± 14.8
number of correct responses (Male Wistar rats; [8]): 60.8 ± 2.1
number of fault responses (Male Wistar rats; [8]): 21.8 ± 2.1
number of missed responses (Male Wistar rats; [8]): 17.5 ± 2.1
percentage of correct responses (Male Wistar rats; [8]): 73.8 ± 2.3%
persevering responses (Male Wistar rats; [8]): 11.1 ± 3.1
total number of responses (Male Wistar rats; [8]): 82.5 ± 2.1
number of anticipatory responses (Male Wistar rats; [9]): 97.3 ± 16.2
number of correct responses (Male Wistar rats; [9]): 62.7 ± 2.9
number of fault responses (Male Wistar rats; [9]): 21.8 ± 1.9
number of missed responses (Male Wistar rats; [9]): 15.6 ± 1.9
percentage of correct responses (Male Wistar rats; [9]): 74.0 ± 2.5%
persevering responses (Male Wistar rats; [9]): 10.7 ± 1.7
total number of responses (Male Wistar rats; [9]): 84.4 ± 1.9
number of anticipatory responses (Male Wistar rats; [10]): 148.3 ± 29.8
number of correct responses (Male Wistar rats; [10]): 62.3 ± 2.9^
number of fault responses (Male Wistar rats; [10]): 23.3 ± 2.3^
number of missed responses (Male Wistar rats; [10]): 14.5 ± 1.8
percentage of correct responses (Male Wistar rats; [10]): 72.7 ± 2.6^ %
persevering responses (Male Wistar rats; [10]): 18.8 ± 4.2
total number of responses (Male Wistar rats; [10]): 85.5 ± 1.8
effect on numbers of correct responses (Male Wistar rats; summary of table 1): does not influence
effect on numbers of fault responses (Male Wistar rats; summary of table 1): does not influence
